This assay relates to P388 leukemia ip, CD2F1 mice, survival T/C. Put plainly: NCI In Vivo Anticancer Drug Screen. Data for tumor model P388 Leukemia (intraperitoneal) in CD2F1 (CDF1) mice. The note with it: endpoint: median survival time, higher = longer survival. In outline: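 Mice carrying the transplanted tumor received test compound or vehicle. Survival was recorded in each group, and the value is the treated-group measurement divided by that of the vehicle-treated control group.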

The mark [1] stands for this setting: dose: 100.0 mg/kg/injection, schedule: Q01DX009 (ip), vehicle: saline with Tween-80.
Setting [2] is: dose: 200.0 mg/kg/injection, schedule: Q01DX009 (ip), vehicle: saline with Tween-80.
Where [3] appears, read: dose: 50.0 mg/kg/injection, schedule: Q01DX009 (ip), vehicle: saline.
[4] abbreviates: dose: 100.0 mg/kg/injection, schedule: Q01DX009 (ip), vehicle: saline.
Where [5] appears, read: dose: 50.0 mg/kg/injection, schedule: Q01DX005 (ip), vehicle: saline with Tween-80.
The mark [6] stands for this setting: dose: 100.0 mg/kg/injection, schedule: Q01DX005 (ip), vehicle: saline with Tween-80.
[7] abbreviates: dose: 200.0 mg/kg/injection, schedule: Q01DX005 (ip), vehicle: saline with Tween-80.
[8] abbreviates: dose: 60.0 mg/kg/injection, schedule: Q01DX005 (ip), vehicle: saline with Tween-80.
[9] abbreviates: dose: 120.0 mg/kg/injection, schedule: Q01DX005 (ip), vehicle: saline with Tween-80.
The mark [10] stands for this setting: dose: 240.0 mg/kg/injection, schedule: Q01DX005 (ip), vehicle: saline with Tween-80.
Setting [11] is: dose: 100.0 mg/kg/injection, schedule: Q04DX003 (ip), vehicle: saline.
Setting [12] is: dose: 200.0 mg/kg/injection, schedule: Q04DX003 (ip), vehicle: saline.
Where [13] appears, read: dose: 400.0 mg/kg/injection, schedule: Q04DX003 (ip), vehicle: saline.
The mark [14] stands for this setting: dose: 50.0 mg/kg/injection, schedule: Q01DX009 (ip), vehicle: Klucel (hydroxypropylcellulose) (HPC).
[15] abbreviates: dose: 100.0 mg/kg/injection, schedule: Q01DX009 (ip), vehicle: Klucel (hydroxypropylcellulose) (HPC).
Setting [16] is: dose: 200.0 mg/kg/injection, schedule: Q01DX009 (ip), vehicle: Klucel (hydroxypropylcellulose) (HPC).
Where [17] appears, read: dose: 25.0 mg/kg/injection, schedule: Q01DX009 (ip), vehicle: saline with Tween-80.
The mark [18] stands for this setting: dose: 200.0 mg/kg/injection, schedule: Q01DX009 (ip), vehicle: saline.
Where [19] appears, read: dose: 50.0 mg/kg/injection, schedule: Q01DX009 (ip), vehicle: saline with Tween-80.
Where [20] appears, read: dose: 60.0 mg/kg/injection, schedule: Q01DX005 (ip), vehicle: saline.
Where [21] appears, read: dose: 120.0 mg/kg/injection, schedule: Q01DX005 (ip), vehicle: saline.
The mark [22] stands for this setting: dose: 240.0 mg/kg/injection, schedule: Q01DX005 (ip), vehicle: saline.
Where [23] appears, read: dose: 50.0 mg/kg/injection, schedule: Q01DX005 (ip), vehicle: Klucel (hydroxypropylcellulose) (HPC).
Where [24] appears, read: dose: 100.0 mg/kg/injection, schedule: Q01DX005 (ip), vehicle: Klucel (hydroxypropylcellulose) (HPC).
Where [25] appears, read: dose: 200.0 mg/kg/injection, schedule: Q01DX005 (ip), vehicle: Klucel (hydroxypropylcellulose) (HPC).

“And” between values parts separate entries of the source, which are not always exact repeats. Equal entries are not always repeated. Inconclusive results and toxic doses are left out. Peptide text beside a SMILES is read from it. * marks the point of attachment. Cbz = O=C(OCc1ccccc1)*

With `Cc1cccc(/C=N\N=C\c2cccc(C)n2)n1`, the T/C by setting is: under setting [1], 100 % of control; under setting [2], 100 % of control.
On to `C/C(=N\NC(=S)N1CCN(c2ncccn2)CC1)c1ccccn1`, for which the T/C is 119 % of control (dose: 6.25 mg/kg/injection, schedule: Q01DX005 (ip), vehicle: saline with Tween-80) and 119 % of control (dose: 12.5 mg/kg/injection, schedule: Q01DX005 (ip), vehicle: saline with Tween-80).
For `Nc1ccccc1C(=O)Nc1ccc(Cl)cc1C(=O)O`, the T/C runs as follows: under setting [3], 101 % of control; under setting [4], 106 % of control.
Regarding `CC1(C)OC(=O)C=C[C@]2(C)[C@H]3CC[C@]4(C)C(=CCC4c4ccoc4)[C@]3(C)[C@H](O)C[C@@H]12` (stereo not given in full), the T/C was 101 % of control (dose: 11.25 mg/kg/injection, schedule: Q01DX005 (ip), vehicle: Klucel (hydroxypropylcellulose) (HPC)); 98 % of control (dose: 22.5 mg/kg/injection, schedule: Q01DX005 (ip), vehicle: Klucel (hydroxypropylcellulose) (HPC)); 94 % of control (dose: 45.0 mg/kg/injection, schedule: Q01DX005 (ip), vehicle: Klucel (hydroxypropylcellulose) (HPC)); 98 % of control (dose: 90.0 mg/kg/injection, schedule: Q01DX005 (ip), vehicle: Klucel (hydroxypropylcellulose) (HPC)); 91 % of control (dose: 180.0 mg/kg/injection, schedule: Q01DX005 (ip), vehicle: Klucel (hydroxypropylcellulose) (HPC)).
Regarding `CC1(C)OC(=O)C=C1Sc1ccccc1`, the T/C was 100 % of control under setting [5], 105 % of control under setting [6] and 105 % of control under setting [7].
Turning to `Cc1nnc2sc(-c3cccc(Cl)c3)nn2c1=O`, the T/C runs as follows: (dose: 50.0 mg/kg/injection, schedule: Q04DX002 (ip), vehicle: Klucel (hydroxypropylcellulose) (HPC)) 102 % of control; (dose: 100.0 mg/kg/injection, schedule: Q04DX002 (ip), vehicle: Klucel (hydroxypropylcellulose) (HPC)) 100 % of control; (dose: 200.0 mg/kg/injection, schedule: Q04DX002 (ip), vehicle: Klucel (hydroxypropylcellulose) (HPC)) 100 % of control.
For `Nc1c(Br)cc(Br)c2c1[nH]c(=O)c1ccccc12`, the T/C under setting [8] was 96 % of control, the T/C under setting [9] was 90 % of control and the T/C under setting [10] is 107 % of control.
Take `Cc1ccccc1C1C2CCCC(C2=O)C(c2ccccc2C)N1C` (stereo not given): the T/C under setting [11] was 100 % of control, the T/C under setting [12] is 103 % of control and the T/C under setting [13] was 89 % of control.
As for `C/C(=N\NC(N)=S)c1ccccc1O`, the T/C is 99 % of control under setting [14], 111 % of control under setting [15] and 102 % of control under setting [16].
As to `CC(C)(C(N=Cc1ccccc1)c1ccccc1)[N+](=O)[O-]` (stereo not given), the T/C is, setting by setting: under setting [8], 100 % of control; under setting [9], 98 % of control; under setting [10], 99 % of control.
For `C(=Nc1ccccc1-c1ccccc1N=Cc1ccccc1)c1ccccc1`, the T/C was 100 % of control and 91 % of control (dose: 1.56 mg/kg/injection, schedule: Q01DX009 (ip), vehicle: saline); 91 % of control (dose: 3.12 mg/kg/injection, schedule: Q01DX009 (ip), vehicle: saline); 104 % of control (dose: 6.25 mg/kg/injection, schedule: Q01DX009 (ip), vehicle: saline with Tween-80); 88 % of control and 93 % of control (dose: 6.25 mg/kg/injection, schedule: Q01DX009 (ip), vehicle: saline); 86 % of control under setting [17]; 96 % of control under setting [4]. The T/C under setting [18] was 89 % of control.
On to `C=C(C(=C)n1nnc(C(=O)OC)c1C(=O)OC)n1nnc(C(=O)OC)c1C(=O)OC`, for which the T/C is 102 % of control under setting [8], 101 % of control under setting [9] and 93 % of control under setting [10].
As to `CC(C)(C)c1cc2c(c(C(C)(C)C)c1)OP(F)(c1ccccc1)(c1ccccc1)N2`, the T/C by setting is: under setting [19], 89 % of control; under setting [1], 95 % of control; under setting [2], 98 % of control.
On to `CCOC(=O)N1C(C)CCCC1C` (stereo not given), for which the T/C under setting [20] was 106 % of control, the T/C under setting [21] is 105 % of control and the T/C under setting [22] was 95 % of control.
On to `O=[N+]([O-])c1cccnc1S(=O)(=O)c1ncccn1`, for which the T/C is 100 % of control (dose: 6.25 mg/kg/injection, schedule: Q01DX009 (ip), vehicle: Klucel (hydroxypropylcellulose) (HPC)); 110 % of control (dose: 12.5 mg/kg/injection, schedule: Q01DX009 (ip), vehicle: Klucel (hydroxypropylcellulose) (HPC)); 96 % of control (dose: 25.0 mg/kg/injection, schedule: Q01DX009 (ip), vehicle: Klucel (hydroxypropylcellulose) (HPC)).
As to `O=C1OCCOCCOCCOCCOC1=O`, the T/C under setting [11] is 96 % of control, the T/C under setting [12] was 101 % of control and the T/C under setting [13] was 104 % of control.
Turning to `COC(=O)C(OC)C(O)C(OC)OC` (stereo not given), the T/C is 100 % of control under setting [5], 101 % of control under setting [6] and 104 % of control under setting [7].
Regarding `CN(C)/N=N/c1nc[nH]c1C(N)=O`, the T/C (dose: 12.5 mg/kg/injection, schedule: Q01DX005 (ip), vehicle: Klucel (hydroxypropylcellulose) (HPC)) is 95 % of control; the T/C (dose: 25.0 mg/kg/injection, schedule: Q01DX005 (ip), vehicle: Klucel (hydroxypropylcellulose) (HPC)) was 105 % of control; the T/C under setting [17] was 123 % of control; the T/C under setting [23] was 105 % of control; the T/C under setting [5] was 106 % of control; the T/C under setting [19] was 120 % of control. Also, the T/C is, setting by setting: under setting [24], 115 % of control; under setting [6], 119 % of control; under setting [1], 120 % of control; (dose: 150.0 mg/kg/injection, schedule: Q01DX005 (ip), vehicle: distilled water + Tween-80) 166 % of control; under setting [25], 122 % of control; under setting [2], 103 % of control. Besides, the T/C (dose: 300.0 mg/kg/injection, schedule: Q01DX005 (ip), vehicle: distilled water + Tween-80) was 156 % of control; the T/C (dose: 400.0 mg/kg/injection, schedule: Q01DX005 (ip), vehicle: saline with Tween-80) was 121 % of control; the T/C (dose: 400.0 mg/kg/injection, schedule: Q01DX009 (ip), vehicle: saline with Tween-80) is 86 % of control.
Consider `O=C(NCc1ccccc1)C1C(=O)C(=O)N(Cc2ccccc2)C1=O` (stereo not given), for which the T/C reads like this: under setting [14], 105 % of control; under setting [15], 100 % of control; under setting [16], 107 % of control.
With `C/C=C/C(=O)Nc1cccc(OC(=O)NC(C)(C)C)c1`, the T/C under setting [17] is 101 % of control, the T/C under setting [19] was 100 % of control and the T/C under setting [1] was 97 % of control.
On to `CN(C)CCCNC(CC#N)CCC#N` (stereo not given), for which the T/C runs as follows: under setting [3], 109 % of control; under setting [4], 104 % of control; under setting [18], 109 % of control.
For `CC1=NN(C(=O)c2ccccc2)C(C)(C)C1`, the T/C reads like this: under setting [23], 113 % of control; under setting [24], 111 % of control; under setting [25], 97 % of control.
On to `[N-]=[N+]=NCCOCn1ccc(=O)[nH]c1=O`, for which the T/C was 103 % of control under setting [20], 108 % of control under setting [21] and 100 % of control under setting [22].
Regarding `CCC(C)C(NC(=O)C1CCCN1C(=O)OCc1ccccc1)C(=O)O` (stereo not drawn) (Cbz-Pro-Ile-OH; configuration not given here), the T/C is 100 % of control under setting [5], 106 % of control under setting [6] and 98 % of control under setting [7].
Regarding `NNc1ccc2nnc(Cl)n2n1`, the T/C (dose: 100.0 mg/kg/injection, schedule: Q04DX002 (ip), vehicle: saline) was 101 % of control; the T/C (dose: 200.0 mg/kg/injection, schedule: Q04DX002 (ip), vehicle: saline) is 102 % of control; the T/C (dose: 400.0 mg/kg/injection, schedule: Q04DX002 (ip), vehicle: saline) was 108 % of control.

These data come from PubChem BioAssay AID330 (DTP/NCI, 2004).
